Tests used:
[1] = test system: H69AR; test: SRB-based cytotoxicity assay; format: cell-based, human; details: for Resistance (fold): H69AR versus SW-1271; for IC50: Homo sapiens, H69AR, multidrug-resistant
Experimental: 1845B5 and MCF-10A non-cancer breast cell lines were cultured in DME/F12 medium supplemented with 10% fetal bovine serum, antibiotics and growth factors. […] The human small cell lung carcinoma H69 cell line and its multidrug-resistant MRP1-overexpressing isogenic H69AR cell line were purchased from ATCC. […] H69 cells grow as large multi-cell aggregates, making it difficult to accurately count cell numbers. […] The IL-6 dependent bortezomib-resistant ANBL6-BR cell line was further supplemented with 1 ng/ml of IL-6. The MCF10AT1 and MCF10CA1a cell lines are isogenic to the MCF10A cell line, and obtained from Dr. Valerie Weaver at the Center for Bioengineering and Tissue Regeneration, UCSF, CA, USA. […] The drug-resistant cells were cultured in the absence of drug for at least one passage before carrying out experiments. All cells were maintained in a humidified incubator at 37° C. […] Cell line authentication was performed using short tandem repeat (STR) profiling. […] Some wells were treated with 100 μl of 10% trichloroacetic acid (TCA) as a negative control and sham (medium with dimethyl sulfoxide; DMSO) treated cells were used as a positive control. […] TCA was removed and cells were washed with cold tap water, and plate was air-dried, followed by addition of 50 μl of 0.4% SRB staining solution to each well. After 30 minutes incubation, SRB staining solution was removed. Cells were washed with 1% acetic acid solution, and then washed with tap water to remove unbound staining solution, followed by air-drying. 200 μl of 10 mM (pH10.5) trizma base buffer was added to each well to solubilise macromolecules. […] Cell growth (inhibition) was calculated by the following formula: % cells proliferation=[(AT-CT)/(ST-CT)]×100 wherein AT=absorbance of treated cells, CT=absorbance of negative control cells, and ST=absorbance of sham treated cells. […] CI values were determined from four independent experiments.

[2] = Liver toxicity by AST and ALT; format: in vivo, mice; details: serum
Experimental: For paclitaxel treatments, 40 mg/ml stock solution of paclitaxel (Sigma, MO) was prepared in DMSO. […] Alanine transaminase (ALT, SUP6001-c)/Aspartate transaminase (AST, SUP6002-c) color endpoint assay kits were purchased from ID Labs Biotechnology (London, Ontario, Canada). Elevation of ALT and AST levels in serum samples was used as an indicator of liver damage/injury. Animals were monitored for food and water consumption every day, and their body weights and tumor volumes were measured twice per week. […] Blood samples were collected via cardiac puncture and processed further for ALT and AST measurements. The animals were then immediately euthanized by carbon dioxide. […] The paraffin-embedded blocks were then cut into 4-5 μm thick sections. Each section of tumors and organs was stained with hematoxylin and eosin (H&E). Changes in body weight, hemoglobin (Hb) and the amount and ratio of alanine transaminase (ALT)/aspartate transaminase (AST) were used to measure toxic effects. In addition, vital organs (liver, spleen, kidney and lung) were analyzed by […] after they were harvested, fixed, processed, paraffin-embedded, sectioned, and stained as described above.

[3] = Paclitaxel 10 mg/kg, CTR 30 mg/kg, or Paclitaxel (5) + CTR (15)

SMILES | Resistance (fold) [1] [fold] | IC50 [1] [nM] | ALT (IU/L) ([2]; CTR 20 mg/kg) | AST (IU/L) ([2]; CTR 20 mg/kg) | ALT (IU/L) [2, 3] [IU/L] | AST (IU/L) [2, 3] [IU/L]
COc1ccccc1C(=O)/C=C/c1cc2ccccc2[nH]c1=O [CTR-17, (E)-3-(3-(2-Methoxyphenyl)-3-oxoprop-1-enyl)quinolin-2(1H)-one] | 0.45 | 520 ± 100 | 63.59 ± 9.73 | 101.00 ± 10.19 | 64.67 ± 5.26 | 114.13 ± 6.36
COc1ccc2[nH]c(=O)c(/C=C/C(=O)c3ccccc3OC)cc2c1 [CTR-20, (E)-6-Methoxy-3-(3-(2-methoxyphenyl)-3-oxoprop-1-enyl) quinolin-2(1H)-one] | 0.13 | 130 ± 10 | 56.77 ± 5.34 | 119.19 ± 4.03 | 50.50 ± 9.96 | 118.22 ± 17.00
CC(=O)O[C@H]1C(=O)[C@@]2(C)[C@H]([C@H](OC(=O)c3ccccc3)[C@]3(O)C[C@H](OC(=O)[C@H](O)[C@@H](NC(=O)c4ccccc4)c4ccccc4)C(C)=C1C3(C)C)[C@]1(OC(C)=O)CO[C@@H]1C[C@@H]2O [Paclitaxel, reference compound] | 2.44 |  |  |  | 52.02 ± 2.59 | 111.14 ± 13.42

— patent US20180344725A1, “QUINOLONE CHALCONE COMPOUNDS AND USES THEREOF” (priority 2015, published 2018)
